In patent US10544113B2 (priority 2016, dated 2020):
Where two headings read alike, the source gives them in different places.

Target: mu-opioid receptor (MOR) (Homo sapiens (Human), UniProt P35372)
Assay: cell-based
Settings: combined with a MOR antagonist; for AUC: AUC of [Ca2+]i fluorescence
Protocol: In an exemplary in vitro screening method for identifying antagonist-to-agonist allosteric modifiers of a MOR, cells that express a MOR are treated with a test compound and a MOR antagonist in a cellular calcium fluorescent assay and fluorescence intensity is then measured to determine whether the MOR is activated. A test compound is identified as an antagonist-to-agonist allosteric modifier of the MOR if the MOR is activated.
EC50 herein refers to the concentration of a compound that induces a response halfway between the baseline and the maximum after a specified exposure time. AUC refers to the area under the response curve, an indication of the compound's capability of activating a MOR when combined with a MOR antagonist.
Human embryonic kidney 293 (HEK-293) cells constitutively expressing MOR (HEK-MOR) and DOR (HEK-DOR) (kindly provided by Dr. Ping-Yee Law, University of Minnesota, USA) were cultured in high-glucose Dulbecco's modified Eagle's medium (DMEM, GIBCO) supplemented with 400 μg/mL G418 (Sigma), 2 mM L-glutamine and P/S/F (100 units/mL penicillin, 100 μg/mL streptomycin, 10% fetal bovine serum). Chinese hamster ovary (CHO)-K1 cells, stably expressing hMOR and Gα15 (CHO-K1/MOR/Gα15), were cultured in F12 medium (GIBCO) supplemented with 10 μg/mL Hygromycin B (Invivogen), 20 μg/mL Zeocin (Invivogen) P/S/F (100 units/mL penicillin, 100 μg/mL streptomycin, 10% fetal bovine serum). The cultures were incubated at 37° C. in a humidified 5% CO2 incubator.
One day before the assay, CORNING® black with clear flat bottom 96-well assay plates were coated with a 0.1 mg/mL Poly-L-Lysine solution. CHO-K1/MOR/Gα15 cells were suspended in the F12 medium and plated at a density of ˜8×10^4 cells/well in 200 μL medium. Cells were incubated in a humidified atmosphere of 10% CO2 at 37° C. overnight so as to reach an 80-90% confluent cell monolayer before assay. At the day of assay, 150 μL medium/well was removed from plate. To each well, 50 μL FLIPR® calcium assay reagent dissolved in 1× assay buffer (HBSS: KCl 5 mM, KH2PO4 0.3 mM, NaCl 138 mM, NaHCO3 4 mM, Na2HPO4 0.3 mM, d-glucose 5.6 mM, with additional 20 mM HEPES and 13 mM CaCl2, pH 7.4), with 2.5 mM probenecid was added and the plate was incubated at 37° C. for 1 h. Compounds and other reagents were dissolved in the assay buffer. Using a FlexStationIII (Molecular Devices Corp.), the [Ca^2+]i fluorescence increases after robotic injections of compounds or other reagents were monitored every 1.52 s interval with excitation wavelength at 485 nm and with emission wavelength at 525 nm. The [Ca^2+]i fluorescence was measured up to 90 s after agonist injection.
A CHO-K1 cell line, expressing a MOR and Gα15 (GenScript), was used to set up a sensitive high-throughput screen (HTS) system. In a FLIPR® calcium assay using CHO-K1/MOR/Gα15 cells, activation of MOR elicits an intracellular calcium release leading to an increase in the relative fluorescence units (FRU). […] The HTS was performed in the absence or presence of an opioid antagonist, naloxone (25 nM), to identify antagonist to agonist allosteric modifiers (AAM).
A CHO-K1 cell line, expressing a MOR and Gα15 (GenScript), was used to set up a sensitive assay system for detecting μ-opioid receptor activation. […] The assay was performed in the presence of an opioid antagonist, i.e., naloxone (25 nM), naltrexone (20 nM), samidorphan (10 nM), naloxonazine dihydrochloride (20 nM), β-funaltrexamine hydrochloride (20 nM), cyprodime hydrochloride (500 nM), or nalmefene (20 nM), in combination with compound 58, an antagonist to agonist allosteric modifier (AAM), to identify activation of the μ-opioid receptor.

[1] = CHO-K1/MOR/Gα15 cells, read-out: EC50

Chain of mu-opioid receptor (MOR) (P35372 whole entry): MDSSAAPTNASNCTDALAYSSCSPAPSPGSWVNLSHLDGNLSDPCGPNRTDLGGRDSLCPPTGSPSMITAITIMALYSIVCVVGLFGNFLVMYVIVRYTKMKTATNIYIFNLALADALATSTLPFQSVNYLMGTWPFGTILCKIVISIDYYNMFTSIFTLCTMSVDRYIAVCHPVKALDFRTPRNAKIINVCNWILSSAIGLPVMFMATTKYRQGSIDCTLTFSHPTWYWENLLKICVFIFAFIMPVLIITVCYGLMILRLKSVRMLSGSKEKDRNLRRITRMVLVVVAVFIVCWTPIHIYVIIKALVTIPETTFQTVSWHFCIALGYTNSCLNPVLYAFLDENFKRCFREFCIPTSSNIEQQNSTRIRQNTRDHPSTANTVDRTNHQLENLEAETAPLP

| Compound | AUC (CHO-K1/MOR/Gα15 cells) | EC50 (EC50, CHO-K1/MOR/Gα15 cells) [µM] | FLIPR Ca^2+ AUC | EC50 (read-out: FLIPR Ca^2+ EC50) [µM] | EC50 [1] [µM] |
| --- | --- | --- | --- | --- | --- |
| Cc1cc(C(=O)NS(=O)(=O)c2ccc(Cl)cc2F)ccc1N1C(=O)CSC1c1ccc(F)cc1 (centres unmarked) | more than 5000 | < 10 | 15287 | 0.1 |  |
| CONC(=O)c1ccc(N2C(=O)CSC2c2ccc(F)cc2)c(C)c1 (centres unmarked) |  |  | 14236 | 4.2 |  |
| 4-[2-(4-Fluorophenyl)-4-oxo-1,3-thiazolidin-3-yl]-N-methoxy-3-methylbenzamide [Example 154] | more than 5000 |  | 15447 | 3.7 | < 10 |
| COc1ccc(N2C(=O)CSC2c2ccc(F)cc2)c(OC)c1 (centres unmarked) [Example 8, 3-(2,4-Dimethoxyphenyl)-2-(4-fluorophenyl)thiazolidin-4-one] |  | < 10 |  |  |  |
| COc1cc(F)c(F)cc1N1C(=O)CSC1c1ccc(F)cc1 (centres unmarked) [Example 10, 3-(4,5-Difluoro-2-methoxyphenyl)-2-(4-fluorophenyl)thiazolidin-4-one] |  | < 10 | 6152 | 2 |  |
| COc1c(F)cc(F)cc1N1C(=O)CSC1c1ccc(F)cc1 (centres unmarked) [Example 11, 3-(3,5-Difluoro-2-methoxyphenyl)-2-(4-fluorophenyl)thiazolidin-4-one] |  | < 10 |  |  |  |
| COc1cc(C(=O)O)ccc1N1C(=O)CSC1c1ccc(F)cc1 (centres unmarked) [Example 12, 4-[2-(4-Fluoro-phenyl)-4-oxo-thiazolidin-3-yl]-3-methoxy-benzoic acid] |  |  | 12252 | 10.6 |  |
| CCOc1ccc(N2C(=O)CSC2c2ccc(F)cc2)cc1Cl (centres unmarked) [Example 20] |  | < 10 |  |  |  |
| N#Cc1ccc(N2C(=O)CSC2c2ccc(F)cc2)cc1 (centres unmarked) [Example 37] |  | < 10 |  |  |  |
| N#Cc1cc(F)c(N2C(=O)CSC2c2ccc(F)cc2)c(F)c1 (centres unmarked) [Example 43] | more than 5000 |  | 12926 | 11.2 |  |
| O=C(O)c1ccc(N2C(=O)CSC2c2ccc(F)cc2)c(Cl)c1 (centres unmarked) [Example 44] |  | < 10 |  |  |  |
| Cc1cc(C#N)ccc1N1C(=O)CSC1c1ccc(F)cc1 (centres unmarked) [Example 46] |  | < 10 |  |  |  |
| COc1ccc(N2C(=O)CSC2c2ccc(F)cc2)c(C)c1 (centres unmarked) [Example 47] |  | < 10 |  |  |  |
| COc1cc(C)c(N2C(=O)CSC2c2ccc(F)cc2)cc1OC (centres unmarked) [Example 52] |  |  | 7780 | 3.6 |  |
| Cc1cc(N(C)C)ccc1N1C(=O)CSC1c1ccc(F)cc1 (centres unmarked) [Example 53] |  |  | 6407 | 0.5 |  |
| Cc1ccc(C(=O)O)cc1N1C(=O)CSC1c1ccc(F)cc1 (centres unmarked) [Example 54] |  |  | 8906 | 3.3 |  |
| COC(=O)c1ccc(N2C(=O)CSC2c2ccc(F)cc2)c(C)c1 (centres unmarked) [Example 59] |  |  | 11534 | 2.6 |  |
| Cc1cc(C(=O)O)ccc1N1C(=O)CSC1c1cccc(F)c1 (centres unmarked) [Example 60] |  |  | 20700 | 1.1 |  |
| Cc1cc(C(=O)O)ccc1N1C(=O)CSC1c1ccc(F)c(F)c1 (centres unmarked) [Example 62] | more than 5000 | < 10 | 21586 | 1.6 |  |
| Cc1cc(C(=O)O)ccc1N1C(=O)CSC1c1cc(F)cc(F)c1 (centres unmarked) [Example 64] | more than 5000 | < 10 | 9368 | 6 |  |
| Cc1cc(C2SCC(=O)N2c2ccc(C(=O)O)cc2C)ccc1F (centres unmarked) [Example 68] | more than 5000 | < 10 | 7951 | 6.4 |  |
| Cc1cc(C(=O)O)ccc1N1C(=O)CSC1c1cccc(C(F)(F)F)c1 (centres unmarked) [Example 74] |  | < 10 |  |  |  |
| COc1ccc(C2SCC(=O)N2c2ccc(C(=O)O)cc2C)cc1 (centres unmarked) [Example 78] | more than 5000 | < 10 | 9368 | 6 |  |

| Compound | AUC (CHO-K1/MOR/Gα15 cells) | EC50 (EC50, CHO-K1/MOR/Gα15 cells) [µM] | FLIPR Ca^2+ AUC | EC50 (read-out: FLIPR Ca^2+ EC50) [µM] | EC50 [1] [µM] |
| --- | --- | --- | --- | --- | --- |
| Cc1cc(C(=O)O)ccc1N1C(=O)CSC1c1ccc(Cl)cc1 (centres unmarked) [Example 84] | more than 5000 | < 10 | 5509 | 7.2 |  |
| CC(=O)c1ccc(C)c(N2C(=O)CSC2c2ccc(F)cc2)c1 (centres unmarked) [Example 90] |  | < 10 |  |  |  |
| Cc1ccc(C(F)(F)F)cc1N1C(=O)CSC1c1ccc(F)cc1 (centres unmarked) [Example 92] |  | < 10 |  |  |  |
| COC(=O)COc1ccc(N2C(=O)CSC2c2ccc(F)cc2)c(C)c1 (centres unmarked) [Example 93] | more than 5000 | < 10 | 11009 | 6.4 |  |
| COC(=O)Cc1ccc(N2C(=O)CSC2c2ccc(F)cc2)c(C)c1 (centres unmarked) [Example 96] | more than 5000 | < 10 | 9657 | 10 |  |
| Cc1cc(CC(=O)O)ccc1N1C(=O)CSC1c1ccc(F)cc1 (centres unmarked) [Example 101] |  | < 10 |  |  |  |
| Cc1ccc(N2C(=O)CSC2c2ccc(F)cc2)c(C)c1 (centres unmarked) [Example 102] |  | < 10 |  |  |  |
| Cc1c(F)cccc1N1C(=O)CSC1c1ccc(F)cc1 (centres unmarked) [Example 109] |  |  | 9614 | 2.6 |  |
| Cc1cc(F)ccc1N1C(=O)CSC1c1ccc(F)cc1 (centres unmarked) [Example 110] |  |  | 6308 | 3.8 |  |
| Cc1ccc(F)cc1N1C(=O)CSC1c1ccc(F)cc1 (centres unmarked) [Example 112] |  | < 10 |  |  |  |
| Cc1ccc(F)cc1N1C(=O)CSC1c1cccc(F)c1 (centres unmarked) [Example 113] |  | < 10 |  |  |  |
| CCc1ccc(C2SCC(=O)N2c2cc(F)ccc2C)cc1 (centres unmarked) [Example 117] | more than 5000 |  | 7880 | 13.5 |  |
| Cc1ccc(F)cc1N1C(=O)CSC1c1cc(F)cc(F)c1 (centres unmarked) [Example 122] | more than 5000 |  | 7010 | 3.6 |  |
| Cc1ccc(F)cc1N1C(=O)CSC1c1ccc(Cl)c(F)c1 (centres unmarked) [Example 123] |  |  | 4228 | 0.5 |  |
| Cc1ccc(Cl)cc1N1C(=O)CSC1c1ccc(F)cc1 (centres unmarked) [Example 147] | more than 5000 | < 10 | 11516 | 3.2 |  |
| Cc1ccc(Br)cc1N1C(=O)CSC1c1ccc(F)cc1 (centres unmarked) [Example 149] |  | < 10 | 4427 | 4.4 |  |
| Cc1cc(C(=N)NO)ccc1N1C(=O)CSC1c1ccc(F)cc1 (centres unmarked) [Example 151] | more than 5000 | < 10 | 10591 | 3.4 |  |
| CCOC(=O)c1ccc(N2C(=O)CSC2c2ccc(F)cc2)c(C)c1 (centres unmarked) [Example 152] | more than 5000 |  | 14743 | 6.3 | < 10 |
| CCOC(=O)c1ccc(N2C(=O)CSC2c2ccc(F)cc2)c(CC)c1 (centres unmarked) [Example 156] | more than 5000 | < 10 | 11998 | 6.2 |  |
| C=Cc1cc(C(=O)O)ccc1N1C(=O)CSC1c1ccc(F)cc1 (centres unmarked) [Example 157] | more than 5000 | < 10 | 5903 | 10 |  |
| CCCS(=O)(=O)NC(=O)c1ccc(N2C(=O)CSC2c2ccc(F)cc2)c(C)c1 (centres unmarked) [Example 160] | more than 5000 | < 10 | 13549 | 4.3 |  |
| CCS(=O)(=O)NC(=O)c1ccc(N2C(=O)CSC2c2ccc(F)cc2)c(C)c1 (centres unmarked) [Example 162] | more than 5000 | < 10 | 13767 | 9.1 |  |
